Test results: the NIST ThermoML archive (doi:10.1016/j.jct.2017.03.026)
“And” between values parts separate entries of the source, which are not always exact repeats. Equal entries are not always repeated.

Experiment: molar heat capacity at constant pressure
Settings: 101.33 kPa, Crystal, Small (less than 1 g) adiabatic calorimetry

O.O.O.O.O.O=S(=O)([O-])[O-].[Cu+2] [copper(II) sulfate pentahydrate]
Settings	molar heat capacity at constant pressure
101.73 K	117.59 J/K/mol
101.86 K	118.59 J/K/mol
102.08 K	117.97 J/K/mol
102.79 K	118.7 J/K/mol
102.91 K	119.62 J/K/mol
103.83 K	120.63 J/K/mol
103.84 K	119.78 J/K/mol
103.89 K	120.08 J/K/mol
103.96 K	120.8 J/K/mol
104.14 K	120.09 J/K/mol
104.36 K	121.29 J/K/mol
104.89 K	120.9 J/K/mol
105.01 K	121.85 J/K/mol
105.93 K	122.01 J/K/mol
106.06 K	122.97 J/K/mol
106.2 K	122.39 J/K/mol
106.46 K	123.36 J/K/mol
106.97 K	123.24 J/K/mol
106.98 K	123.14 J/K/mol
107.12 K	123.92 J/K/mol
107.46 K	124.56 J/K/mol
108.03 K	124.25 J/K/mol
108.17 K	125.23 J/K/mol
108.27 K	124.44 J/K/mol
109.08 K	125.36 J/K/mol
109.1 K	126.13 J/K/mol
109.23 K	126.17 J/K/mol
110 K	126.2 J/K/mol
110.06 K	126.42 J/K/mol
110.13 K	126.46 J/K/mol
110.29 K	127.26 J/K/mol
110.33 K	126.54 J/K/mol
110.57 K	127.78 J/K/mol
111.18 K	127.44 J/K/mol
111.37 K	128.56 J/K/mol
111.74 K	128.74 J/K/mol
112.23 K	128.52 J/K/mol
112.4 K	128.7 J/K/mol
112.43 K	129.57 J/K/mol
113.16 K	129.6 J/K/mol
113.29 K	129.54 J/K/mol
113.49 K	130.69 J/K/mol
113.69 K	130.98 J/K/mol
114.34 K	130.68 J/K/mol
114.38 K	131.41 J/K/mol
114.47 K	130.81 J/K/mol
114.56 K	131.62 J/K/mol
115.39 K	131.78 J/K/mol
115.62 K	132.81 J/K/mol
116.25 K	132.9 J/K/mol
116.44 K	132.81 J/K/mol
116.54 K	133.18 J/K/mol
116.68 K	133.94 J/K/mol
116.81 K	134.01 J/K/mol
117.02 K	134.2 J/K/mol
117.5 K	133.84 J/K/mol
117.75 K	134.93 J/K/mol
118.55 K	134.96 J/K/mol
118.62 K	135 J/K/mol
118.81 K	136.22 J/K/mol
119.36 K	135.88 J/K/mol
119.63 K	136.14 J/K/mol
119.67 K	137.03 J/K/mol
119.88 K	137.17 J/K/mol
119.93 K	137.32 J/K/mol
120 K	136.3 J/K/mol
120.69 K	136.94 J/K/mol and 137.14 J/K/mol
120.95 K	138.19 J/K/mol
121.74 K	138.15 J/K/mol
122.02 K	139.11 J/K/mol
122.32 K	139.58 J/K/mol
122.46 K	138.97 J/K/mol
122.8 K	139.17 J/K/mol and 139.26 J/K/mol
123.07 K	140.4 J/K/mol
123.09 K	140.26 J/K/mol
123.86 K	140.26 J/K/mol
124.16 K	141.38 J/K/mol
124.88 K	141.31 J/K/mol
124.91 K	141.44 J/K/mol
124.97 K	142.22 J/K/mol
125.23 K	142.7 J/K/mol
125.57 K	142.11 J/K/mol
125.97 K	142.63 J/K/mol
126.2 K	143.67 J/K/mol
126.3 K	143.66 J/K/mol
126.97 K	143.36 J/K/mol
127.03 K	143.46 J/K/mol
127.37 K	144.66 J/K/mol
127.62 K	145 J/K/mol
128.08 K	144.35 J/K/mol
128.47 K	145.88 J/K/mol
128.7 K	145.15 J/K/mol
129.05 K	145.44 J/K/mol
129.14 K	145.37 J/K/mol
129.38 K	146.91 J/K/mol
129.54 K	146.79 J/K/mol
130 K	146.3 J/K/mol
130.2 K	146.58 J/K/mol
130.3 K	147.58 J/K/mol
130.62 K	147.67 J/K/mol
131.13 K	147.52 J/K/mol
131.25 K	147.55 J/K/mol
131.69 K	149.05 J/K/mol
131.82 K	148.2 J/K/mol
132.31 K	148.61 J/K/mol
132.53 K	150.01 J/K/mol
132.77 K	150.08 J/K/mol
132.95 K	150.13 J/K/mol
133.22 K	149.57 J/K/mol
133.37 K	149.93 J/K/mol
133.85 K	151.35 J/K/mol
134.43 K	150.8 J/K/mol
134.92 K	152.13 J/K/mol
134.93 K	151.23 J/K/mol
135.3 K	151.53 J/K/mol
135.49 K	151.95 J/K/mol
135.59 K	152.75 J/K/mol
135.69 K	153.09 J/K/mol
136 K	153.04 J/K/mol
136.56 K	152.7 J/K/mol
137.07 K	154.23 J/K/mol
137.39 K	153.55 J/K/mol
137.61 K	153.75 J/K/mol
138.05 K	154.26 J/K/mol
138.14 K	155.44 J/K/mol
138.23 K	155.31 J/K/mol
138.67 K	154.9 J/K/mol
138.85 K	156.32 J/K/mol
139.22 K	156.25 J/K/mol
139.47 K	155.53 J/K/mol
139.72 K	155.9 J/K/mol
140 K	156 J/K/mol
140.3 K	157.18 J/K/mol
140.78 K	156.94 J/K/mol
140.87 K	157.92 J/K/mol
141.16 K	157.45 J/K/mol
141.37 K	158.29 J/K/mol
141.56 K	157.55 J/K/mol
141.83 K	157.84 J/K/mol
142.01 K	159.46 J/K/mol
142.45 K	159.47 J/K/mol
142.89 K	158.79 J/K/mol
143.51 K	160.83 J/K/mol
143.52 K	160.62 J/K/mol
143.64 K	159.6 J/K/mol
143.94 K	159.82 J/K/mol
144.28 K	160.35 J/K/mol
144.6 K	161.74 J/K/mol
144.99 K	160.85 J/K/mol
145.18 K	162.59 J/K/mol
145.7 K	162.72 J/K/mol
145.73 K	161.63 J/K/mol
146.04 K	161.99 J/K/mol
146.16 K	163.13 J/K/mol
146.78 K	163.89 J/K/mol
147.09 K	162.84 J/K/mol
147.4 K	163.32 J/K/mol
147.81 K	163.57 J/K/mol
147.86 K	165.08 J/K/mol
148.14 K	163.74 J/K/mol
148.35 K	165.5 J/K/mol
148.79 K	165.6 J/K/mol
148.94 K	165.94 J/K/mol
149.18 K	164.71 J/K/mol
149.89 K	165.56 J/K/mol
150 K	165.6 J/K/mol
150.02 K	166.77 J/K/mol
150.23 K	165.8 J/K/mol
150.52 K	166.26 J/K/mol
150.77 K	167.63 J/K/mol
151.09 K	168 J/K/mol
151.27 K	167.02 J/K/mol
151.52 K	168.7 J/K/mol
151.97 K	167.63 J/K/mol
152.1 K	169 J/K/mol
152.17 K	169.13 J/K/mol
152.32 K	167.82 J/K/mol
153.24 K	170.02 J/K/mol
153.38 K	169.02 J/K/mol
153.43 K	170.11 J/K/mol
153.64 K	169.31 J/K/mol
154.06 K	169.63 J/K/mol
154.32 K	171.06 J/K/mol
154.42 K	169.98 J/K/mol
154.7 K	171.74 J/K/mol
154.77 K	171.25 J/K/mol
155.4 K	172.12 J/K/mol
155.47 K	171.07 J/K/mol
156.1 K	172.57 J/K/mol
156.15 K	171.68 J/K/mol
156.48 K	173.12 J/K/mol
156.52 K	172.03 J/K/mol
156.76 K	172.32 J/K/mol
157.44 K	173.97 J/K/mol
157.56 K	174.08 J/K/mol
157.57 K	172.98 J/K/mol
157.89 K	174.79 J/K/mol
158.24 K	173.62 J/K/mol
158.61 K	173.88 J/K/mol
158.64 K	175.11 J/K/mol
158.78 K	175.17 J/K/mol
159.66 K	174.82 J/K/mol
159.72 K	176.1 J/K/mol
159.88 K	175.23 J/K/mol
160 K	175.2 J/K/mol
160.11 K	176.48 J/K/mol
160.32 K	175.83 J/K/mol
160.71 K	175.82 J/K/mol
160.81 K	177.05 J/K/mol
161.09 K	177.82 J/K/mol
161.48 K	177.68 J/K/mol
161.75 K	176.91 J/K/mol
161.89 K	178.2 J/K/mol
162.41 K	177.56 J/K/mol
162.8 K	177.97 J/K/mol
162.82 K	178.9 J/K/mol
163 K	179.4 J/K/mol
163.01 K	178.38 J/K/mol
163.85 K	178.9 J/K/mol
164.09 K	180.26 J/K/mol
164.16 K	180.28 J/K/mol
164.29 K	180.86 J/K/mol
164.49 K	179.69 J/K/mol
164.89 K	179.88 J/K/mol
165.17 K	181.13 J/K/mol
165.49 K	181.52 J/K/mol
165.94 K	180.9 J/K/mol
166.13 K	181.26 J/K/mol
166.26 K	182.01 J/K/mol
166.58 K	181.3 J/K/mol
166.83 K	182.73 J/K/mol
166.99 K	181.72 J/K/mol
167.35 K	183.04 J/K/mol
167.49 K	183.69 J/K/mol
168.03 K	182.66 J/K/mol
168.17 K	183.76 J/K/mol
168.44 K	184.44 J/K/mol
168.67 K	183.22 J/K/mol
169.08 K	183.64 J/K/mol
169.26 K	184.18 J/K/mol
169.5 K	184.87 J/K/mol
169.53 K	185.06 J/K/mol
170 K	184.5 J/K/mol
170.13 K	184.56 J/K/mol
170.62 K	186.24 J/K/mol
170.71 K	186.66 J/K/mol
170.76 K	185.15 J/K/mol
170.84 K	186.28 J/K/mol
171.17 K	185.59 J/K/mol
171.71 K	187.47 J/K/mol
172.18 K	187.68 J/K/mol
172.38 K	187.03 J/K/mol
172.8 K	188.14 J/K/mol
172.85 K	187.26 J/K/mol
173.51 K	188.79 J/K/mol
173.89 K	188.9 J/K/mol
173.93 K	189.4 J/K/mol
174.85 K	189.91 J/K/mol
174.95 K	188.94 J/K/mol
174.98 K	190 J/K/mol
175.51 K	189.78 J/K/mol
176.07 K	191.28 J/K/mol
176.18 K	191.23 J/K/mol
177.04 K	190.61 J/K/mol
177.15 K	192.53 J/K/mol
177.16 K	191.97 J/K/mol
177.52 K	192.4 J/K/mol
178.25 K	192.97 J/K/mol
178.63 K	192.28 J/K/mol
178.85 K	193.69 J/K/mol
179.13 K	192.37 J/K/mol
179.35 K	194.03 J/K/mol
180 K	193.2 J/K/mol
180.19 K	194.75 J/K/mol
180.42 K	195.75 J/K/mol
180.47 K	195.63 J/K/mol
181.21 K	194.29 J/K/mol
181.52 K	196.05 J/K/mol
181.57 K	196.1 J/K/mol
181.75 K	194.99 J/K/mol
182.67 K	197.05 J/K/mol
182.89 K	197.45 J/K/mol
183.3 K	195.97 J/K/mol
183.65 K	198.96 J/K/mol
183.77 K	198.41 J/K/mol
184.23 K	198.67 J/K/mol
184.86 K	199.51 J/K/mol
184.87 K	197.91 J/K/mol
185.39 K	197.77 J/K/mol
185.55 K	200.51 J/K/mol
185.95 K	200.62 J/K/mol
186.89 K	201.62 J/K/mol and 202.38 J/K/mol
187.05 K	201.82 J/K/mol
187.48 K	199.99 J/K/mol
187.99 K	200.27 J/K/mol
188.14 K	203.75 J/K/mol
188.22 K	203.53 J/K/mol
189.25 K	204.46 J/K/mol
189.56 K	204.62 J/K/mol
189.57 K	201.44 J/K/mol
190 K	201.9 J/K/mol
190.12 K	206.13 J/K/mol
190.35 K	205.41 J/K/mol
190.88 K	206.97 J/K/mol
191.11 K	202.91 J/K/mol
191.45 K	206.67 J/K/mol
191.66 K	203.21 J/K/mol
192.21 K	207.95 J/K/mol
192.55 K	207.97 J/K/mol
193.37 K	209.23 J/K/mol
193.55 K	208.35 J/K/mol
193.65 K	208.94 J/K/mol
193.74 K	205.3 J/K/mol
194.23 K	206.14 J/K/mol
194.75 K	209.89 J/K/mol
194.87 K	210.1 J/K/mol
195.83 K	207.12 J/K/mol
